Key:
Format in all cases: in vivo
[1] = tested on: Yellow Fever Mosquito Aedes aegypti; assay: Insecticidal assay 4, yellow fever mosquito larvae, 96-well plate; settings: A. aegypti first instar larvae in water; 1.5 microliters of 4 micrograms per microliter in DMSO per well; assessed after 72 hours at 22° C.
Text: 4. Insecticidal Assay for Yellow Fever Mosquito Aedes aegypti:
Objective: To evaluate the insecticidal activity of compounds against A. aegypti larvae through contact and ingestion.
(§1) Test unit preparation: Empty, 96-well microtiter plates are loaded onto a robotic dispensing system prior to application.
Formulation and application: Compounds are formulated in dimethyl sulfoxide at 4-micrograms per microliter. A robotic system dispenses 1.5 microliters of each formulated experimental solution into each well of an empty, 96-well microtiter plate. Each treatment is replicated 3 times.
Infesting: Subsequent to application, recently hatched, mosquito larvae are suspended in water containing 0.4% mosquito diet (1:3 mix of brewers yeast to liver powder). A robotic system dispenses aliquots of this aqueous solution containing 5-8 first instar mosquitoes into each well of the treated plates.
Holding and assessment: After infestation, the plates are covered with a matching clear plastic lid. Infested plates are stacked and held in an incubator at 22° C. for 72 hours. At assessment, cells are examined by means of a dissecting microscope for insecticidal effects.

[2] = tested on: Root-Knot Nematode Meloidogyne incognita; assay: Insecticidal assay 5, root-knot nematode, 96-well plate with foxtail millet; settings: M. incognita eggs; 5 micrograms of compound per well; soil/polymer media with foxtail millet seeds; assessed after 7 days at 27° C.
Text: 5. Insecticidal Assay for Root-Knot Nematode Meloidogyne incognita:
Objective: To evaluate the insecticidal activity of compounds against M. incognita through contact and ingestion.
as §1
Formulation and application: A robotic system dispenses 25 microliters of ethanol and 5 micrograms of compound, diluted in dimethyl sulfoxide, into each well of a 96-well flat-bottomed, microtiter plate. There are 3 replicates per treatment. The plates are held 24 hours to allow proper drying prior to further preparation and infestation.
Additional test unit preparation and infestation: After drying, 16 milligrams of media consisting of 2 parts fine soil and 1 part absorbent polymer is added to each well of the treated 96-well plates. Once the media is in place, a 200 microliter aqueous suspension of rootknot nematode eggs is added to each well forming a gelatinous substrate. Into each of these wells are distributed 10 foxtail millet Seteria italica seeds. Following this “planting” an identical plate is sealed to the top of the treated plate to allow space for the millet to grow.
Holding and assessment: Once the lids are in place, the plates are held at 27° C. and 75% relative humidity under bright indirect lights. […]

[3] = tested on: Tobacco Budworm Heliothis virescens; assay: Insecticidal assay 2, tobacco budworm, 96-well diet plate; settings: H. virescens eggs and early instars; 2 microliters of 4 micrograms per microliter in DMSO per well on diet; 200 ppm piperonyl butoxide co-applied; assessed after 6 days at 29° C.
Method: 2. Insecticidal Assay for Tobacco Budworm Heliothis virescens:
Objective: To evaluate the insecticidal activity of compounds against H. virescens eggs and early instars through contact and ingestion.
Test unit preparation: A robotic system dispenses 150 microliters of freshly prepared artificial lepidopteran diet into each well of a 96-well microtiter plate. The plates are held overnight at 22° C. to allow proper cooling and drying prior to treatment and infestation.
Compound formulation and application: Compounds are formulated in dimethyl sulfoxide at 4-micrograms per microliter. A robotic system automatically dispenses 2 microliters of each of the compound solutions into individual wells of the prepared test units. Each treatment is replicated 6 times. As part of the application process, a 200 ppm concentration of the commonly used synergist, piperonyl butoxide is co-applied to each well to increase the sensitivity of this assay. After application, plates are allowed to dry 5-6 hours in a fume hood. When dry, the plates are covered with a matching lid and held overnight in a sealed container prior to infestation.
Infestation: One day after application, each treated well is infested with 3-5, tobacco budworm eggs.
Holding and assessment: Once infested, the plates are covered with a clear plastic lid. The plates are stacked and held in an incubator at 29° C. […]

[4] = tested on: Tobacco Budworm Heliothis virescens; assay: Insecticidal assay 8, tobacco budworm, diet cups; settings: H. virescens second instar; 250 microliters of 400 ppm and 25 ppm solutions on diet in cups; assessed 5 days after infestation
Method: 8. Insecticidal Assay for Tobacco Budworm Heliothis virescens:
Objective: To assess the insecticidal activity of compounds against H. virescens through contact and ingestion.
(§2) Test unit preparation: 8 milliliters of lepidopteran diet is dispensed into one ounce clear plastic portion cups. The diet is allowed to cool before storage or use.
(§3) Formulation and application: Eight milligrams of technical compound is dissolved in 20 milliliters of 2:1 acetone:tap water diluent to form a 400 ppm solution. An aliquot of this solution is also used to prepare a 25 parts per million concentration. 250 microliters of each solution is then pipetted onto the surface the diet in each cup. Each treatment is replicated 10 times.
Infestation: Once the treated cups have dried, a single second-instar tobacco budworm is placed on the treated diet in each cup.
(§4) Holding and assessment: Treated and infested diet cups or are capped and then held in a chamber at 25° C. and 50% relative humidity. 14-hours light:10-hours dark. 5 days after infestation the larvae are assessed for insecticidal effects.

[5] = tested on: Corn Earworm Helicoverpa zea; assay: Insecticidal assay 11, corn earworm, 128 well bioassay trays; settings: H. zea second instar; 50 microliters of 1 milligram per milliliter stock or serial dilutions on diet per well; assessed 5 days after infestation
Method: 11. Insecticidal Assay for Corn Earworm Helicoverpa zea:
Objective: To assess the insecticidal activity of compounds against H. zea, through contact and ingestion.
(§5) Test unit preparation: 128 well bioassay trays are prepared by injecting each well with approximately 1 milliliter of prepared lepidopteran diet. Trays are allowed to dry prior to use.
(§6) Compound formulation and application: A 1 milligram per milliliter, stock solution is prepared for each compound by adding 2 milliliters of acetone/water diluent (9:1) to a vial containing 2 milligrams of technical compound. From this stock solution, additional doses may be produced through serial dilution. Once the appropriate concentrations have been prepared, 50 microliters of each solution is applied to the surface of the diet in each of 8 wells. Upon completing application, the trays are allowed to dry.
Infestation: Once dry, each well is infested with a single second instar corn earworm. Infested wells are sealed with self sticking, ventilated plastic covers.
(§7) Holding and assessment: After infestation and sealing, the trays are placed in a growth chamber at 25 C and 40% relative humidity. 5 days after infestation the larvae are assessed for insecticidal effects.

[6] = tested on: Green Peach Aphid Myzus persicae; assay: Insecticidal assay 15, green peach aphid, foliar spray on cabbage seedlings; settings: M. persicae on cabbage seedlings; 50 and 5 parts per million spray solutions; assessed 3 days after treatment
Method: 15. Insecticidal Assay for Green Peach Aphid Myzus persicae:
Objective: To assess the insecticidal activity of compounds against M. persicae through contact and ingestion.
(§8) Formulation and application: One (1) milligram of each technical synthetic organic compound was dissolved in 1 milliliters of a 90:10 acetone:ethanol solvent. This 1 milliliter of chemical solution was added to 19 milliliters of distilled water containing 0.05% Tween 20 surfactant to produce a 50 parts per million spray solution. A 5 part per million solution was then prepared from the 50 part per million stock.
Test unit preparation and infestation: Cabbage seedlings, with 2 to 3 first true leaves emerged (12 days after planting) are culled to 1 plant per 3 inch pot. Treatments consisted of 4 replicates. Four days prior to application, heavily infested colony turnip leaves are shaken above the untreated plants. Shaking dislodges the aphids and they migrate to succulent plant material. Plants are examined to ensure even infestation prior to application.
(§9) Application: The plants are sprayed on both sides of all leaves with a hand-held atomizing sprayer until solutions are completely used. […]
Holding and assessment: The plants are allowed to air dry and are then held for 3 days in a controlled room at 26° C. and 40% relative humidity. 3 days after treatment the aphids are assessed for insecticidal effects.

[7] = tested on: German Cockroach Blattella germanica; assay: Insecticidal assay 12, German cockroach, 96-well diet plate; settings: B. germanica second instar; 2 microliters of 4-microgram/microliter in DMSO per well on diet; assessed after 6 and 13 days at 29° C.
Method: 12. Insecticidal Assay for German Cockroach Blattella germanica: Objective: Assessment of the insecticidal activity of compounds against B. germanica through contact and ingestion. Test unit preparation: A robotic system dispenses 100 microliters of freshly prepared artificial diet into each well of a 96-well microtiter plate. The plates are held overnight at 22° C. to allow proper cooling and drying prior to treatment and infestation. Compound formulation and application: Compounds are formulated in dimethyl sulfoxide at 4-microgram/microliter. A robotic system automatically dispenses 2 microliters of each compound solution into individual wells of the prepared test units. Each treatment is replicated 3 times. After application, plates are allowed to dry 5-6 hours in a fume hood. When dry, the plates are covered with a matching lid and held overnight in a sealed container prior to infestation. Infestation: One day after application, each treated well is infested with 3-5, second instar cockroaches. Holding and assessment: Once infested, the plates are covered with a clear plastic lid. The plates are stacked and held in an incubator at 29° C. After 6 and 13 days respectively, each well is examined by means of a dissecting microscope for insecticidal effects.

[8] = tested on: Beet Armyworm Spodoptera exigua; assay: Insecticidal assay 7, beet armyworm, diet cups; settings: S. exigua second instar; 250 microliters of 400 ppm and 25 ppm solutions on diet in cups; assessed 5 days after infestation
Method: 7. Insecticidal Assay for Beet Armyworm Spodoptera exigua:
Objective: To assess the insecticidal activity of compounds against S. exigua, through contact and ingestion.
as §2, §3
Infestation: Once the treated cups have dried, a single second-instar beet armyworm is placed on the treated diet in each cup.
as §4

[9] = tested on: Cotton Aphid Aphis gossypii; assay: Insecticidal assay 14, cotton aphid, foliar spray on squash; settings: A. gossypii all life stages on squash; 50 and 5 parts per million spray solutions; assessed 3 days after treatment
Method: 14. Insecticidal Assay for Cotton Aphid Aphis gossypii:
Objective: To assess the insecticidal activity of compounds against A. gossypii through contact and ingestion.
as §8
Test unit preparation and infestation: One week old ‘Crookneck’ squash plants, trimmed to one cotyledon per plant, are infested with cotton aphids (all life stages). Sections of heavily infested colony squash leaves were placed on the untreated squash cotyledons 16-20 hrs prior to spraying. As the infested sections dried out, the aphids moved to the succulent plant material. Plants are examined to ensure even infestation prior to application.
as §9
Holding and assessment: The plants are allowed to air dry and are then held for 3 days in a controlled room at 26° C. and 40% relative humidity prior to grading. 3 days after treatment the aphids are assessed for insecticidal effects.

[10] = tested on: Western Tarnished Plant Bug Lygus hesperus; assay: Insecticidal assay 13, western tarnished plant bug, sprayed egg-infested snow pea pods; settings: L. hesperus eggs and emergent nymphs; airbrush spray on egg-infested snow pea pods; assessed after 10 days
Method: 13. Insecticidal Assay for Western Tarnished Plant Bug Lygus hesperus:
Objective: Assessment of the insecticidal activity of compounds against L. hesperus through egg contact and contact/ingestion activity on emergent nymphs.
Test Unit preparation: Female lygus are allowed to oviposit on snow pea pods, these pods are then placed in plastic Petri dishes.
Formulation and application: Compounds are dissolved in acetone and further dilutes with water containing 0.025% Tween 20. The solutions are sprayed on the Petri dishes and the egg-infested snow pea pods using an airbrush.
Holding and assessment: The Petri dishes are held for 10 days under controlled conditions at which time the emerging nymphs are assessed for insecticidal effects.

[11] = tested on: Cabbage Looper Tricoplusia ni; assay: Insecticidal assay 9, cabbage looper, cabbage leaf disc dip; settings: T. ni second instar; cabbage leaf discs dipped in 400 ppm and 25 ppm solutions; assessed 5 days after infestation
Method: 9. Insecticidal Assay for Cabbage Looper Tricoplusia ni:
Objective: To assess the insecticidal activity of compounds against T. ni through contact and ingestion.
Formulation and application: Eight milligrams of technical compound is dissolved in 20 milliliters of 2:1 acetone:tap water diluent to form a 400 ppm solution. An aliquot of this solution is also used to prepare a 25 parts per million concentration. 3.5 centimeter diameter leaf discs cut from cabbage leaves are dipped into each solution until thoroughly wet. Each treatment is replicated 10 times. After air-drying, the treated discs are placed individually into one-ounce plastic cups.
Infestation: Once the leaf discs have dried, a single second instar cabbage looper is place on the cabbage disc in each cup.
Holding and assessment: Treated and infested cups or are capped and then held in a chamber at 25° C. and 50% relative humidity, 14-hours light:10-hours dark. 5 days after infestation the larvae are assessed for insecticidal effects.

[12] = tested on: Beet Armyworm Spodoptera exigua; assay: Insecticidal assay 10, beet armyworm, 128 well bioassay trays; settings: S. exigua second instar; 50 microliters of 1 milligram per milliliter stock or serial dilutions on diet per well; assessed 5 days after infestation
Method: 10. Insecticidal Assay for Beet Armyworm Spodoptera exigua:
Objective: To assess the insecticidal activity of compounds against S. exigua through contact and ingestion.
as §5, §6
Infestation: Once dry, each well is infested with a single second instar beet armyworm. The infested wells are sealed with self sticking, ventilated plastic covers.
as §7

[13] = tested on: Large Milkweed Bug Oncopeltus fasciatus; assay: Insecticidal assay 6, large milkweed bug, 96-well diet plate; settings: O. fasciatus second instar; 2 microliters of 4-microgram/microliter in DMSO per well on diet; assessed after 6 days at 29° C.
Method: 6. Insecticidal Assay for Large Milkweed Bug Oncopeltus fasciatus:
Objective: To assess the insecticidal activity of compounds against O. fasciatus through contact and ingestion.
Test unit preparation: A robotic system dispenses 100 microliters of freshly prepared artificial diet into each well of a 96-well microtiter plate. The plates are held overnight at 22° C. to allow proper cooling and drying prior to treatment and infestation.
Compound formulation and application: Compounds are formulated in dimethyl sulfoxide at 4-microgram/microliter. A robotic system automatically dispenses 2 microliters of each of the experimental compound solutions into individual wells of the prepared test units. There are 6 replicates per treatment. After application, plates are allowed to dry 5-6 hours in a fume hood. When dry, the plates are covered with a matching lid and held overnight in a sealed container prior to infestation.
Infestation: One day after application, each treated well is infested with 3-5 second instar milkweed bugs.
Holding and assessment: Once infested, the plates are covered with a clear plastic lid. The plates are then stacked and held in an incubator at 29° C. After 6 days, each well is examined by means of a dissecting microscope for insecticidal effect.

Measured: insecticidal activity

CN(Nc1nc(C(F)(F)F)nc(C(F)(F)F)c1C#N)c1ccc(C#N)cn1 [Compound 30]
significant insecticidal activity: [1]

N#Cc1c(NNc2c(Cl)cc(C(F)(F)F)cc2Cl)nc(C(F)(F)F)nc1C(F)(F)F [Compound 11, 4-[N′-(2,6-dichloro-4-trifluoromethyl-phenyl)-hydrazino]-2,6-bis-trifluoromethyl-pyrimidine-5-carbonitrile]
significant insecticidal activity: all assays above

Source: patent US8445500B2, “Pesticidal compositions” (Dow AgroSciences, LLC., priority 2007, dated 2013)
